For one experiment, the system named is α2-GABAA receptor. The experiment is described as follows: Ligand-binding assay, competitive with radiolabeled flumazenil, spinal cord membranes. The note with it: Affinity for α2-GABAA receptor, rat spinal cord membranes, radiolabeled flumazenil 1 nM; for % Inhibition 10^−5M: 10^-5M test compound; for % Inhibition 10^−7M: 10^-7M test compound. The procedure: (§1) Ligand-binding assays. Determination of the affinity of test compounds for α1- and α2-GABAA receptor.
(§2) Male Sprague-Dawley rats weighing 200-250 g at the time of experiment were used. After decapitation of the animal, the cerebellum (tissue that mostly contains α1-GABAA receptor) and spinal cord (tissue that mostly contains α2-GABAA receptor) were removed. The membranes were prepared according to the method by J. Lameh et al. (Prog. Neuro-Psychopharmacol. Biol. Psychiatry, 24, 979-991, 2000) and H. Noguchi et al. (Eur. J. Pharm., 434, 21-28, 2002). Once the tissues weighed, they were suspended in 50 mM Tris.HCl (pH 7.4), 1:40 (w/v), or sucrose 0.32 M in the case of spinal cord, homogenized and then centrifuged at 20,000 g for 10 min at 7° C. twice. The resulting pellet was resuspended under the same conditions and centrifuged again. The pellet was finally resuspended on a minimum volume and kept at −80° C. overnight. On the next day, the process was repeated until the final pellet was resuspended at a ratio of 1:10 (w/v) in the case of cerebellum and at a ratio of 1:5 (w/v) in the case of spinal cord.
(§3) Affinity was determined by competitive tests using radiolabeled flumazenil as ligand. The tests were performed according to the methods described by S. Arbilla et al. (Eur. J. Pharmacol., 130, 257-263, 1986); and Y. Wu et al. (Eur. J. Pharmacol., 278, 125-132, 1995) using 96-well microtiter plates. The membranes containing the study receptors, flumazenil (radiolabeling at a final concentration of 1 nM) and ascending concentrations of test compounds (in a total volume of 230 μL in 50 mM [ph 7.4] Tris.HCl buffer) were incubated. Simultaneously, the membranes were only incubated with the radiolabeled flumazenil (total binding, 100%) and in the presence of an elevated concentration of unradiolabeled flumazenil (non-specific binding, % estimation of radiolabeled ligand). The reactions started on adding the radiolabeled ligand followed by incubation for 60 minutes at 4° C. At the end of the incubation period, 200 μL of reaction were transferred to a multiscreen plate (Millipore) and filtered using a vacuum manifold and then washed three times with cold test buffer. The multiscreen plates were equipped with a GF/B filter that retained the membranes containing the receptors and the radiolabeled ligand which has been bound to the receptors. After washing, the plates were left till dry. Once dried, scintillation liquid was added and left under stirring overnight. The next day the plates were counted using a Perkin-Elmer Microbeta scintillation counter.
(§4) For analysis of the results the percentage of specific binding for every concentration of test compound was calculated as follows:
(§5) % specific binding=(X−N/T−N)×100
(§6) where, X: amount of bound ligand for every concentration of compound. T: total binding, maximum amount bound to the radiolabeled ligand. N: non-specific binding, amount of radiolabeled ligand bound in a non-specific way irrespective of the receptor used.
(§7) Every concentrations of compound were tested in triplicate and their mean values were used to determine the experimental values of % specific binding versus the concentration of compound. Affinity data are expressed as % inhibition at 10^-5M and 10^-7M concentrations.

A further experiment concerns mice. Nature of the experiment: In vivo predictive sedation-hypnosis test (inhibition of traveled distance). Also noted: species or system mouse. As to conditions: male CD1 mice; single equimolecular intraperitoneal doses; traveled distance over 30 min after dosing (first 5 min discarded) versus control. The protocol:
In vivo determination of predictive sedative-hypnotic action.
The in vivo effects of these compounds were assessed by a predictive sedation-hypnosis test in mice (D. J. Sanger et al., Eur. J. Pharmacol., 313, 35-42, 1996; and G. Griebel et al., Psychopharmacology, 146, 205-213, 1999).
Groups of 5-8 male CD1 mice, weighing 22-26 g at the time of test, were used. The test compounds were administered in single equimolecular intraperitoneal doses, suspended in 0.25% agar with one drop of Tween in a volume of 10 mL/kg. Control animals received the vehicle alone. Using a Smart System (Panlab, S. L., Spain) the traveled distance in cm is recorded for each mouse at 5-min intervals during a period of 30 minutes after dosing. The inhibition percentage of traveled distance of treated animals versus control animals (the first 5 min were discarded) was calculated.

The subject of a further experiment is α1-GABAA receptor. Nature of the experiment: Ligand-binding assay, competitive with radiolabeled flumazenil, cerebellum membranes. As to conditions: Affinity for α1-GABAA receptor, rat cerebellum membranes, radiolabeled flumazenil 1 nM; for % Inhibition 10^−5M: 10^-5M test compound; for % Inhibition 10^−7M: 10^-7M test compound. The procedure:
as §1, §2, §3, §4, §5, §6, §7

Consider `Cc1ccc(-c2nc3ccc(C)cn3c2CN(C)C(=O)c2ccc3ccccc3n2)cc1` [Example 35, Quinoline-2-carboxylic acid methyl-(6-methyl-2-p-tolyl-imidazo[1,2-a]pyridin-3-ylmethyl)-amide], for which, in the experiment on α2-GABAA receptor, the “% Inhibition 10^−5M” value is 3.7% and the “% Inhibition 10^−7M” value was found to be 0.0%. Also, the “% Inhibition Motor Activity” value with mice was 33.19%. In the experiment with α1-GABAA receptor, the “% Inhibition 10^−5M” value worked out at 67.1% and the “% Inhibition 10^−7M” value amounted to 31.8%.

`C#CCN(Cc1c(-c2ccc(C)cc2)nc2ccc(C)cn12)C(=O)C1CC1` [Example 42, Cyclopropanecarboxylic acid (6-methyl-2-p-tolyl-imidazo[1,2-a]pyridin-3-ylmethyl)-prop-2-ynyl-amide]: in the experiment with α2-GABAA receptor, the “% Inhibition 10^−5M” value turned out to be 49.7% and the “% Inhibition 10^−7M” value worked out at 0.0%. In addition, the “% Inhibition Motor Activity” value in the experiment on mice is reported as 40.35%. In addition, in the experiment with α1-GABAA receptor, the “% Inhibition 10^−5M” value came out at 92.7% and the “% Inhibition 10^−7M” value is recorded as 12.4%.

Take `Cc1ccc(-c2nc3ccc(C)cn3c2CNC(=O)C2CCC2)cc1` [Example 58, Cyclobutanecarboxylic acid (6-methyl-2-p-tolyl-imidazo[1,2-a]pyridin-3-ylmethyl)-amide]: in the experiment on α2-GABAA receptor, the “% Inhibition 10^−5M” value is listed as 78.6% and the “% Inhibition 10^−7M” value is 9.2%. Further, the “% Inhibition Motor Activity” value with mice is recorded as 94.25%. Moreover, in the experiment on α1-GABAA receptor, the “% Inhibition 10^−5M” value was 98.8% and the “% Inhibition 10^−7M” value was 6.5%.

`Cc1ccc(-c2nc3ccc(C)cn3c2CNC(=O)c2cnc(C)cn2)cc1` [Example 61, 5-Methyl-pyrazine-2-carboxylic acid (6-methyl-2-p-tolyl-imidazo[1,2-a]pyridin-3-ylmethyl)-amide]: the “% Inhibition 10^−5M” value is on record as 98.5% in the experiment with α2-GABAA receptor and 100.0% in the experiment on α1-GABAA receptor. Further, the “% Inhibition 10^−7M” value with α2-GABAA receptor amounted to 48.3%; in the experiment with α1-GABAA receptor it was 85.4%. Besides, the “% Inhibition Motor Activity” value in the experiment with mice is reported as 90.55%.

In the case of `Cc1ccc(-c2nc3ccc(C)cn3c2CNC(=O)c2cccnc2)cc1` [Example 63, N-(6-Methyl-2-p-tolyl-imidazo[1,2-a]pyridin-3-ylmethyl)-nicotinamide], the “% Inhibition 10^−5M” value in the experiment on α2-GABAA receptor was 89.8%; in the experiment with α1-GABAA receptor, 98.5%. The “% Inhibition 10^−7M” value in the experiment on α2-GABAA receptor was 13.4%; with α1-GABAA receptor, 36.1%. In addition, the “% Inhibition Motor Activity” value in the experiment on mice is given as 74.86%.

As for `Cc1ccc(-c2nc3ccc(C)cn3c2CNC(=O)C2=NNC(=O)CC2)cc1` [Example 65, 6-Oxo-1,4,5,6-tetrahydro-pyridazine-3-carboxylic acid (6-methyl-2-p-tolyl-imidazo[1,2-a]pyridin-3-ylmethyl)-amide], in the experiment on α2-GABAA receptor, the “% Inhibition 10^−5M” value turned out to be 95.4% and the “% Inhibition 10^−7M” value was determined as 39.1%. The “% Inhibition Motor Activity” value with mice is given as 85.22%. In the experiment on α1-GABAA receptor, the “% Inhibition 10^−5M” value amounted to 99.5% and the “% Inhibition 10^−7M” value came out at 83.9%.

Turning to `Cc1ccc(-c2nc3ccc(C)cn3c2CNC(=O)c2cc(C)n(C)n2)cc1` [Example 67, 1,5-Dimethyl-1H-pyrazole-3-carboxylic acid (6-methyl-2-p-tolyl-imidazo[1,2-a]pyridin-3-ylmethyl)-amide], the results for the “% Inhibition 10^−5M” value in the experiment on α2-GABAA receptor and with α1-GABAA receptor were 96.6% and 99.6%, respectively. The “% Inhibition 10^−7M” value in the experiment with α2-GABAA receptor was determined as 47.3%; in the experiment with α1-GABAA receptor, 84.7%. In the experiment on mice, the “% Inhibition Motor Activity” value is 78.09%.

Turning to `Cc1ccc(-c2nc3ccc(C)cn3c2CNC(=O)c2csc(C)n2)cc1` [Example 69, 2-Methyl-thiazole-4-carboxylic acid (6-methyl-2-p-tolyl-imidazo[1,2-a]pyridin-3-ylmethyl)-amide], in the experiment with α2-GABAA receptor, the “% Inhibition 10^−5M” value was 98.8% and the “% Inhibition 10^−7M” value was determined as 74.1%. The “% Inhibition Motor Activity” value with mice is given as 78.41%. For the same molecule, in the experiment with α1-GABAA receptor, the “% Inhibition 10^−5M” value amounted to 100.4% and the “% Inhibition 10^−7M” value is recorded as 93.4%.

Turning to `Cc1ccc(-c2nc3ccc(C)cn3c2CNC(=O)c2csnn2)cc1` [Example 70, [1,2,3]Thiadiazole-4-carboxylic acid (6-methyl-2-p-tolyl-imidazo[1,2-a]pyridin-3-ylmethyl)-amide], in the experiment on α2-GABAA receptor, the “% Inhibition 10^−5M” value was found to be 97.7% and the “% Inhibition 10^−7M” value turned out to be 25.6%. For the same molecule, the “% Inhibition Motor Activity” value in the experiment on mice is 90.77%. Further, in the experiment with α1-GABAA receptor, the “% Inhibition 10^−5M” value was determined as 100.4% and the “% Inhibition 10^−7M” value is on record as 79.7%.

On to `Cc1ccc(-c2nc3ccc(C)cn3c2CNC(=O)Cc2cccs2)cc1` [Example 71, N-(6-Methyl-2-p-tolyl-imidazo[1,2-a]pyridin-3-ylmethyl)-2-thiophen-2-yl-acetamide], for which the “% Inhibition 10^−5M” value in the experiment on α2-GABAA receptor turned out to be 67.8%; with α1-GABAA receptor, 96.4%. Moreover, the entries for the “% Inhibition 10^−7M” value in the experiment on α2-GABAA receptor and with α1-GABAA receptor were 7.2% and 21.9%, respectively. Further, in the experiment on mice, the “% Inhibition Motor Activity” value was 94.08%.

Take `Cc1ccc(-c2nc3ccc(C)cn3c2CNC(=O)c2cc(C)on2)cc1` [Example 72, 5-Methyl-isoxazole-3-carboxylic acid (6-methyl-2-p-tolyl-imidazo[1,2-a]pyridin-3-ylmethyl)-amide]: in the experiment with α2-GABAA receptor, the “% Inhibition 10^−5M” value stood at 95% and the “% Inhibition 10^−7M” value is listed as 33.1%. Also, the “% Inhibition Motor Activity” value in the experiment on mice is 73.81%. Besides, in the experiment on α1-GABAA receptor, the “% Inhibition 10^−5M” value worked out at 99.8% and the “% Inhibition 10^−7M” value came out at 73.4%.

For `Cc1ccc(-c2nc3ccc(C)cn3c2CNC(=O)c2cn(C)cn2)cc1` [Example 74, 1-Methyl-1H-imidazole-4-carboxylic acid (6-methyl-2-p-tolyl-imidazo[1,2-a]pyridin-3-ylmethyl)-amide], in the experiment with α2-GABAA receptor, the “% Inhibition 10^−5M” value is 98.6% and the “% Inhibition 10^−7M” value is 63.0%. In addition, in the experiment with mice, the “% Inhibition Motor Activity” value was 77.37%. Further, in the experiment on α1-GABAA receptor, the “% Inhibition 10^−5M” value is recorded as 99.9% and the “% Inhibition 10^−7M” value was 95.3%.

Regarding `Cc1ccc(-c2nc3ccc(C)cn3c2CNC(=O)c2nccn2C)cc1` [Example 78, 1-Methyl-1H-imidazole-2-carboxylic acid (6-methyl-2-p-tolyl-imidazo[1,2-a]pyridin-3-ylmethyl)-amide], in the experiment on α2-GABAA receptor, the “% Inhibition 10^−5M” value is 98.8% and the “% Inhibition 10^−7M” value is 85.9%. The “% Inhibition Motor Activity” value in the experiment on mice was 88.10%. Moreover, in the experiment with α1-GABAA receptor, the “% Inhibition 10^−5M” value is 100.2% and the “% Inhibition 10^−7M” value is given as 97.9%.

Regarding `Cc1ccc(-c2nc3ccc(C)cn3c2CNC(=O)c2cscn2)cc1` [Example 81, Thiazole-4-carboxylic acid (6-methyl-2-p-tolyl-imidazo[1,2-a]pyridin-3-ylmethyl)-amide], the “% Inhibition 10^−5M” value in the experiment with α2-GABAA receptor is on record as 94.3%; in the experiment with α1-GABAA receptor it was 99.6%. Besides, the “% Inhibition 10^−7M” value amounted to 1.5% in the experiment with α2-GABAA receptor and 69.9% in the experiment with α1-GABAA receptor. Also, the “% Inhibition Motor Activity” value with mice is reported as 84.31%.

Take `Cc1ccc(-c2nc3ccc(C)cn3c2CNC(=O)c2nc(C)oc2C)cc1` [Example 83, 2,5-Dimethyl-oxazole-4-carboxylic acid (6-methyl-2-p-tolyl-imidazo[1,2-a]pyridin-3-ylmethyl)-amide]: in the experiment on α2-GABAA receptor, the “% Inhibition 10^−5M” value came out at 93.2% and the “% Inhibition 10^−7M” value came out at 71.1%. In addition, the “% Inhibition Motor Activity” value in the experiment with mice is recorded as 93.22%. In addition, in the experiment on α1-GABAA receptor, the “% Inhibition 10^−5M” value is listed as 100.0% and the “% Inhibition 10^−7M” value came to 93.6%.

Source of the values: patent US20080200473A1, “Imidazo [1,2-a]Pyridine Compounds, Compositions, Uses and Methods Thereto” (Ferrer Internacional, S.A., priority 2004, published 2008).
